# From ChEMBL document CHEMBL2074297, “Identification of phalloidin uptake systems of rat and human liver” (Biochim Biophys Acta, 2004)
# Starred links: 1 amine or outer side, 2 acyl side, 3 side chain; linkers in the order of their positions; H or OH if unused. Positions of bridges follow the written chain, without caps; N, C: chain ends. Non-standard residues stand in square brackets, D forms with d. Residues, ends and D or L forms follow the SMILES beside them. Trp(2-yl) = O=C([C@H](Cc1c([*:3])[nH]c2ccccc12)N[*:1])[*:2]; Leu(4R-OH,5-OH) = C[C@](O)(CO)C[C@H](N)C(=O)O; cisHyp = O=C(O)[C@@H]1C[C@H](O)CN1
# Legend:
# [1] = target: T1, Hepatic sodium/bile acid cotransporter (Rattus norvegicus, UniProt P26435); assay: (§1) TP_TRANSPORTER: uptake in Xenopus laevis oocytes; assay type: functional, cell-based; details: oocyte
# T1 sequence (P26435 whole entry): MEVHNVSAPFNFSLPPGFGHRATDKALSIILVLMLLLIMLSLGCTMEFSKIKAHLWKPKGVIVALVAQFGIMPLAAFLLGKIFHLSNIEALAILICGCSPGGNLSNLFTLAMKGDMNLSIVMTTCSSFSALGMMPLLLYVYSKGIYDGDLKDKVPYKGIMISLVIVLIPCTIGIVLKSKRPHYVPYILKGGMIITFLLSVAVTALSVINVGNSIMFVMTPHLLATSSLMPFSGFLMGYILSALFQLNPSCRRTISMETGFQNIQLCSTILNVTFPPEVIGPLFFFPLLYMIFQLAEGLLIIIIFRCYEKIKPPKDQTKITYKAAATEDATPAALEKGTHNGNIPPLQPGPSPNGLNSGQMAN
# [2] = target: T2, Solute carrier organic anion transporter family member 1A1 (Rattus norvegicus, UniProt P46720); assay: as §1; assay type: functional, cell-based; details: oocyte
# T2 sequence (P46720 whole entry): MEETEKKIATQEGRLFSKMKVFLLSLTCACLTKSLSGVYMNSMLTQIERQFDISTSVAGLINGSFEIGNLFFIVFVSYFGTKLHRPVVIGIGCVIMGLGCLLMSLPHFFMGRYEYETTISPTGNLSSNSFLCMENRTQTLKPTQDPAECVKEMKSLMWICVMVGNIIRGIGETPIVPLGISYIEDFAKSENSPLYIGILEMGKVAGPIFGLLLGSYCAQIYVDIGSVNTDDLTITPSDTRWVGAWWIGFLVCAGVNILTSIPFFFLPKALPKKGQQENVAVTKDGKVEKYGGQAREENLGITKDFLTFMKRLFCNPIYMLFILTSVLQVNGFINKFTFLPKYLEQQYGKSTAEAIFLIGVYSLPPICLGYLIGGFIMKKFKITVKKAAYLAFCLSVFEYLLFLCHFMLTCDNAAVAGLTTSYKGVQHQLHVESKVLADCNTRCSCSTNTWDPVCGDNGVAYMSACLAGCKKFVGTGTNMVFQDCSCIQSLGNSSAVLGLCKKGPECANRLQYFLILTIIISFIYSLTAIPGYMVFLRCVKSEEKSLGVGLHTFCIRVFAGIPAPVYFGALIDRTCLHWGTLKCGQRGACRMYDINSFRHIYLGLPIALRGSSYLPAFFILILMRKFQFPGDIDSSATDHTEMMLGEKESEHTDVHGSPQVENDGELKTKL
# [3] = target: T3, Solute carrier organic anion transporter family member 1A4 (Rattus norvegicus, UniProt O35913); assay: as §1; assay type: functional, cell-based; details: oocyte
# T3 sequence (O35913 whole entry): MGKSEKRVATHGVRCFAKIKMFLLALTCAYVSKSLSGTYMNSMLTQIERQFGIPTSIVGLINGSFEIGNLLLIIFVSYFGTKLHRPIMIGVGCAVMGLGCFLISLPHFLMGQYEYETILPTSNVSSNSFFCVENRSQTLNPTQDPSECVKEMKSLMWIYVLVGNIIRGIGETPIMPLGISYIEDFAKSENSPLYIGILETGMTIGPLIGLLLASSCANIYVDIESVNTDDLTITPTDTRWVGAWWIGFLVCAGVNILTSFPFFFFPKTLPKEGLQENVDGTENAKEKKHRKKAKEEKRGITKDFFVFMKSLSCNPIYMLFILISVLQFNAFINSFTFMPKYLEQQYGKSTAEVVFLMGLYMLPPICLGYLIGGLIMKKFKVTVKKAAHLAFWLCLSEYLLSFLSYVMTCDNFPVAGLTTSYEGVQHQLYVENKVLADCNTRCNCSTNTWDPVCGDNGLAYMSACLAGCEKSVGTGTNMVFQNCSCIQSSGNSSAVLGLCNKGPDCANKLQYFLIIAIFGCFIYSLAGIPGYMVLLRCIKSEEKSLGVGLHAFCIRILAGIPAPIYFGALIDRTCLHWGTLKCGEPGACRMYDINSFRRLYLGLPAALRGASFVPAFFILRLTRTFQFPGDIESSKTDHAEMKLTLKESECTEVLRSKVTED
# [4] = target: T4, Solute carrier organic anion transporter family member 2B1 (Homo sapiens, UniProt O94956); assay: as §1; assay type: functional, cell-based; details: oocyte
# T4 sequence (O94956 whole entry): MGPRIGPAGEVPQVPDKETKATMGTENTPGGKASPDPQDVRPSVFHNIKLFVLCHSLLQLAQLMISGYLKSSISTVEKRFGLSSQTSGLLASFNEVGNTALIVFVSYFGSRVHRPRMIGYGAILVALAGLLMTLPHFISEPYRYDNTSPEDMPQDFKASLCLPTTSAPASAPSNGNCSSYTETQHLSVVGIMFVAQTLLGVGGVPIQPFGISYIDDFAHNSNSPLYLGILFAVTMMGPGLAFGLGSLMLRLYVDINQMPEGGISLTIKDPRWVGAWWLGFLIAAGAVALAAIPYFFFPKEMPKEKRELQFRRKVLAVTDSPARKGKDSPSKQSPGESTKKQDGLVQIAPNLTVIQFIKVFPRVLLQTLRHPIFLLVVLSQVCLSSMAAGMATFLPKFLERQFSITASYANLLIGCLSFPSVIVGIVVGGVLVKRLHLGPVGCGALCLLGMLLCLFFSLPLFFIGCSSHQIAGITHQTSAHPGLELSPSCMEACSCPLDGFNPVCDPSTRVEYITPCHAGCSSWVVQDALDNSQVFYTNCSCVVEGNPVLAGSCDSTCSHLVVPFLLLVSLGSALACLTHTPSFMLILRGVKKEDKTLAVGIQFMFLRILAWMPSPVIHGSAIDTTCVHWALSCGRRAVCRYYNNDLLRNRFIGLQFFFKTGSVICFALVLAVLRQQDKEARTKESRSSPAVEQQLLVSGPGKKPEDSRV
# [5] = target: T5, Solute carrier organic anion transporter family member 1B2 (OATP1B2) (Rattus norvegicus, UniProt Q9QZX8); assay: as §1; assay type: functional, cell-based, Oocyte; details: Xenopus laevis oocytes expressing the transporter
# T5 sequence (Q9QZX8 whole entry): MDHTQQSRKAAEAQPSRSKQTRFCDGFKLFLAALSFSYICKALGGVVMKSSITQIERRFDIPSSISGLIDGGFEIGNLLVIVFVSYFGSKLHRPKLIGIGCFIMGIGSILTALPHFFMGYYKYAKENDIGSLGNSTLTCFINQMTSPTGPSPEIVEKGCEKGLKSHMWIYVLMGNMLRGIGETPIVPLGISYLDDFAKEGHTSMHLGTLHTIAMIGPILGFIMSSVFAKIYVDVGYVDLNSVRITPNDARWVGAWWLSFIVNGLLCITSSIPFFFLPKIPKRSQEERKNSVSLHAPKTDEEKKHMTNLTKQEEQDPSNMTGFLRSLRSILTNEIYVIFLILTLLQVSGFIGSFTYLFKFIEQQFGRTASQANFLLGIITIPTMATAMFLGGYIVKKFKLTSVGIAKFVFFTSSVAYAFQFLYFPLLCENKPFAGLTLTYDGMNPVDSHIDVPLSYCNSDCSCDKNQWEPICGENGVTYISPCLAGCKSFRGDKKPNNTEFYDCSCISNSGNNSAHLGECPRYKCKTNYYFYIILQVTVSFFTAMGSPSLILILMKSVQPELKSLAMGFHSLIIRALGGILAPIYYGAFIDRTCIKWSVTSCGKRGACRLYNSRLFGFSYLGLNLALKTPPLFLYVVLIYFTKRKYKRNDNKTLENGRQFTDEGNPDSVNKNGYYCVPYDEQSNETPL
# [6] = target: T6, Solute carrier organic anion transporter family member 1B3 (OATP1B3) (Homo sapiens, UniProt Q9NPD5); assay: as §1; assay type: functional, cell-based, Oocyte; details: Xenopus laevis oocytes expressing the transporter
# T6 sequence (Q9NPD5 whole entry): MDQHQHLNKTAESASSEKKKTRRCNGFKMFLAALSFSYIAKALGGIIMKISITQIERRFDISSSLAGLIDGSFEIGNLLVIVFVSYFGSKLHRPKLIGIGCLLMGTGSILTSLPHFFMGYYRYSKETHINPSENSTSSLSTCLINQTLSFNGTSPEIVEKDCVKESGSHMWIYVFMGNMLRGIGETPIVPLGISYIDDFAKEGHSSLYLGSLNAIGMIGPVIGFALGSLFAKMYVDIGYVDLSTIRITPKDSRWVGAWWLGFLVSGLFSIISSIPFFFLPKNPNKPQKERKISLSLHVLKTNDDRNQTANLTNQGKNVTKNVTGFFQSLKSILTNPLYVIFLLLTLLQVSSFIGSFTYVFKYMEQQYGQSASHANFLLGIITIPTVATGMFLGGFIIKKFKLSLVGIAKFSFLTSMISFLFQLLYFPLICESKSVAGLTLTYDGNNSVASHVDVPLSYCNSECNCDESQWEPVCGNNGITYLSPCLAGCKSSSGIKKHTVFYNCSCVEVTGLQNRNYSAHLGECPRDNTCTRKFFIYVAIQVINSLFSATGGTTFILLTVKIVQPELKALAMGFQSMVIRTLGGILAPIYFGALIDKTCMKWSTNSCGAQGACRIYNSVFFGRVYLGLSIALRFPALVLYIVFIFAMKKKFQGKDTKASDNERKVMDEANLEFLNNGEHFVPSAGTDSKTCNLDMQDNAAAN
# [7] = target: T7, Solute carrier organic anion transporter family member 1B1 (OATP1B1) (Homo sapiens, UniProt Q9Y6L6); assay: as §1; assay type: functional, cell-based, Oocyte; details: Xenopus laevis oocytes expressing the transporter
# T7 sequence (Q9Y6L6 whole entry): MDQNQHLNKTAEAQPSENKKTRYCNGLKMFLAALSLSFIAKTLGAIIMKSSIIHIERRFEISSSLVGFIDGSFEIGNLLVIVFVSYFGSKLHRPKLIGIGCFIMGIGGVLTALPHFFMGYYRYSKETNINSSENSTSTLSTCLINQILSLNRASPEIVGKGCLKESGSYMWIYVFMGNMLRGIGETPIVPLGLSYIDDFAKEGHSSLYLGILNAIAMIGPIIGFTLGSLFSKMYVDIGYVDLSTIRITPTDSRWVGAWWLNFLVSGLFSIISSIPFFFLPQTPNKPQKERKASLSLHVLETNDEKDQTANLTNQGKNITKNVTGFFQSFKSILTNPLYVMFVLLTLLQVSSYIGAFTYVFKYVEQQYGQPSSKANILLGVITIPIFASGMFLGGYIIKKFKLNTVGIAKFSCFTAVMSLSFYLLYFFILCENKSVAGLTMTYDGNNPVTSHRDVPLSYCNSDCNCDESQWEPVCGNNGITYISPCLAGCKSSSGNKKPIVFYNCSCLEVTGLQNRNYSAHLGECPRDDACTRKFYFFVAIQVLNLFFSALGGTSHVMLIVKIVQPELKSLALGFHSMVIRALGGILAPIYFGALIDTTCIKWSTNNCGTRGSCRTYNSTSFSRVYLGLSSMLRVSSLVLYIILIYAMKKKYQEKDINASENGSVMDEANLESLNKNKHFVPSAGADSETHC
# [8] = target: T1, Hepatic sodium/bile acid cotransporter; assay: (§2) TP_TRANSPORTER: inhibition of taurocholate uptake (taurocholate: 10 uM) in Xenopus laevis oocytes; assay type: functional, cell-based; details: oocyte
# [9] = target: T2, Solute carrier organic anion transporter family member 1A1; assay: as §2; assay type: functional, cell-based; details: oocyte
# [10] = target: T3, Solute carrier organic anion transporter family member 1A4; assay: as §2; assay type: functional, cell-based; details: oocyte
# [11] = target: T8, Solute carrier organic anion transporter family member 1B2 (Rattus norvegicus, UniProt Q9QZX8); assay: as §2; assay type: functional, cell-based; details: oocyte
# T8 sequence (Q9QZX8 whole entry): T5 sequence (Q9QZX8 whole entry)
Structure (SMILES),Activity [1],Activity [2],Activity [3],Activity [4],Km [5],Km [6],Km [7],Activity [8],Activity [9],Activity [10],Activity [11]
CC(O)C[C@@H]1NC(=O)[C@@H]2Cc3c([nH]c4ccccc34)SC[C@@H](NC(=O)[C@H]([C@@H](C)O)NC(=O)[C@H](C)NC1=O)C(=O)N1C[C@H](O)C[C@H]1C(=O)N[C@@H](C)C(=O)N2 (stereo partly specified) [DEMETHYLPHALLOIN],is not a substrate [-],is not a substrate [-],is not a substrate [-],is not a substrate [-],5.7 µM,7.5 µM,17 µM,–,–,–,–
"C[C@@H]1NC(=O)[C@H](C[C@@](C)(O)CO)NC(=O)[C@@H]2Cc3c([nH]c4ccccc34)SC[C@H](NC(=O)[C@@H]([C@H](C)O)NC1=O)C(=O)N1C[C@@H](O)C[C@H]1C(=O)N[C@@H](C)C(=O)N2 [PHALLOIDIN] (cyclo(A[dT]C[cisHyp]A[Trp(2-yl)][Leu(4R-OH,5-OH)]); thioether 3-6)",–,–,–,–,–,–,–,is not an inhibitor [-],is not an inhibitor [-],is not an inhibitor [-],inhibitor [+]
